Measured values reported in ChEMBL document CHEMBL5303304, “EUbOPEN Chemogenomics Library - IncuCyte” (2023).

Columns and labels:
Fibroblast = test: Incucyte cell viability with human fibroblast; type: toxicity, cell-based; settings: 10 µM, compound concentration 10 uM
U2OS = test: Incucyte cell viability with U2OS; type: toxicity, cell-based; settings: human, 10 µM, compound concentration 10 uM
Further: unitless GR value; below 1 slowed growth and below 0 cell loss.

Cc1cc(Cn2c(N3CC4(CNC4)C3)nc3cc(Cl)cc(N4CCN(C)CC4)c32)cc(C)c1F
Growth Rate (Fibroblast; 0 h, replicate number 1): -1
Growth Rate (Fibroblast; 0 h, replicate number 2): -0.8
Growth Rate (Fibroblast; 6 h, replicate number 1): -0.09
Growth Rate (Fibroblast; 6 h, replicate number 2): -0.44
Growth Rate (Fibroblast; 12 h, replicate number 1): -0.09
Growth Rate (Fibroblast; 12 h, replicate number 2): 0.21
Growth Rate (Fibroblast; 18 h, replicate number 1): 0
Growth Rate (Fibroblast; 18 h, replicate number 2): 0.16
Growth Rate (Fibroblast; 24 h, replicate number 1): 0.06
Growth Rate (Fibroblast; 24 h, replicate number 2): 0.36
Growth Rate (U2OS; 0 h, replicate number 1): -0.3
Growth Rate (U2OS; 0 h, replicate number 2): -0.61
Growth Rate (U2OS; 6 h, replicate number 1): 0.43
Growth Rate (U2OS; 6 h, replicate number 2): 0.64
Growth Rate (U2OS; 12 h, replicate number 1): 0.79
Growth Rate (U2OS; 12 h, replicate number 2): 0.82
Growth Rate (U2OS; 18 h, replicate number 1): 0.95
Growth Rate (U2OS; 18 h, replicate number 2): 0.98
Growth Rate (U2OS; 24 h, replicate number 1): 0.83
Growth Rate (U2OS; 24 h, replicate number 2): 0.96

CC(C)N(CCCCOCC(=O)O)c1cnc(-c2ccccc2)c(-c2ccccc2)n1
Growth Rate (Fibroblast; 0 h, replicate number 2): -0.09
Growth Rate (U2OS; 24 h, replicate number 2): 0.99

CC(C)(C#N)c1cc(Cn2cncn2)cc(C(C)(C)C#N)c1 [ANASTROZOLE]
Growth Rate (Fibroblast; 0 h, replicate number 2): -1
Growth Rate (Fibroblast; 12 h, replicate number 1): -1
Growth Rate (Fibroblast; 18 h, replicate number 1): 0.84
Growth Rate (Fibroblast; 24 h, replicate number 1): 0.63
Growth Rate (U2OS; 0 h, replicate number 1): -0.51

c1ccc(Cn2c(N3CCNCC3)nc3ccccc32)cc1 [LERISETRON]
Growth Rate (Fibroblast; 0 h, replicate number 1): -0.1
Growth Rate (Fibroblast; 6 h, replicate number 2): -0.44
Growth Rate (Fibroblast; 12 h, replicate number 2): 0.34
Growth Rate (Fibroblast; 18 h, replicate number 2): 0.56
Growth Rate (Fibroblast; 24 h, replicate number 2): 0.68
Growth Rate (U2OS; 6 h, replicate number 1): 0.7
Growth Rate (U2OS; 6 h, replicate number 2): 0.64
Growth Rate (U2OS; 18 h, replicate number 2): 0.94
Growth Rate (U2OS; 24 h, replicate number 2): 0.99

Cl.Clc1cc2cc(c1)-c1cnn3ccc(nc13)NCCOCCO2
Growth Rate (Fibroblast; 6 h, replicate number 1): 0.79
Growth Rate (Fibroblast; 6 h, replicate number 2): -0.68
Growth Rate (Fibroblast; 12 h, replicate number 1): -1
Growth Rate (Fibroblast; 18 h, replicate number 1): 0.22
Growth Rate (Fibroblast; 24 h, replicate number 1): -0.13
Growth Rate (U2OS; 0 h, replicate number 1): -0.1
Growth Rate (U2OS; 0 h, replicate number 2): 0.65
Growth Rate (U2OS; 6 h, replicate number 2): 0.72
Growth Rate (U2OS; 12 h, replicate number 1): 0.99
Growth Rate (U2OS; 12 h, replicate number 2): 0.85
Growth Rate (U2OS; 24 h, replicate number 1): 0.93
Growth Rate (U2OS; 24 h, replicate number 2): 0.92

Cc1cnc(Nc2ccc(C(=O)N3CCN(C)CC3)cc2)nc1N[C@@H]1CCC[C@@H]1C(N)=O
Growth Rate (Fibroblast; 6 h, replicate number 2): 0.31
Growth Rate (Fibroblast; 12 h, replicate number 1): 0.62
Growth Rate (Fibroblast; 12 h, replicate number 2): -0.08
Growth Rate (Fibroblast; 18 h, replicate number 2): 0.56
Growth Rate (Fibroblast; 24 h, replicate number 1): 0.96
Growth Rate (Fibroblast; 24 h, replicate number 2): 0.61
Growth Rate (U2OS; 0 h, replicate number 1): 0.86
Growth Rate (U2OS; 0 h, replicate number 2): 0.22
Growth Rate (U2OS; 6 h, replicate number 1): 0.41
Growth Rate (U2OS; 6 h, replicate number 2): -0.77
Growth Rate (U2OS; 12 h, replicate number 1): 0.4
Growth Rate (U2OS; 12 h, replicate number 2): 0.38
Growth Rate (U2OS; 18 h, replicate number 1): 0.31
Growth Rate (U2OS; 18 h, replicate number 2): 0.45
Growth Rate (U2OS; 24 h, replicate number 1): 0.34
Growth Rate (U2OS; 24 h, replicate number 2): 0.52

COc1cc(-c2cc3ncccc3c(O[C@@H](C)[C@H]3CNC(=O)C3)n2)cc(OC)c1OC
Growth Rate (Fibroblast; 12 h, replicate number 2): 0.62
Growth Rate (U2OS; 6 h, replicate number 1): 0.94

O=C(O)c1ccc(CN2C[C@@H]3C[C@H]2CN3Cc2ccc(Oc3ccc(-c4ncco4)cc3)cc2)cc1 [ACEBILUSTAT]
Growth Rate (Fibroblast; 0 h, replicate number 1): -0.98
Growth Rate (Fibroblast; 6 h, replicate number 2): -0.8
Growth Rate (Fibroblast; 12 h, replicate number 2): 0.38
Growth Rate (Fibroblast; 18 h, replicate number 2): 0.62
Growth Rate (Fibroblast; 24 h, replicate number 2): 0.87
Growth Rate (U2OS; 0 h, replicate number 2): 0.32
Growth Rate (U2OS; 6 h, replicate number 1): 0.74
Growth Rate (U2OS; 6 h, replicate number 2): -0.01
Growth Rate (U2OS; 12 h, replicate number 2): 0.49
Growth Rate (U2OS; 18 h, replicate number 2): 0.79
Growth Rate (U2OS; 24 h, replicate number 2): 0.82

Cc1nc2cccnc2n2c(-c3cc([C@@]4(O)CCCOC4)ccc3Cl)nnc12
Growth Rate (Fibroblast; 6 h, replicate number 1): 0.39
Growth Rate (Fibroblast; 6 h, replicate number 2): -0.24
Growth Rate (Fibroblast; 12 h, replicate number 2): 0.67
Growth Rate (Fibroblast; 18 h, replicate number 1): 0.97
Growth Rate (Fibroblast; 18 h, replicate number 2): 0.74
Growth Rate (Fibroblast; 24 h, replicate number 1): 0.81
Growth Rate (Fibroblast; 24 h, replicate number 2): 0.88
Growth Rate (U2OS; 12 h, replicate number 2): 0.83
Growth Rate (U2OS; 18 h, replicate number 2): 0.96

C[C@]12CC[C@H](O)CC1=CC[C@@H]1[C@@H]2CC[C@]2(C)C(n3cnc4ccccc43)=CC[C@@H]12 [GALETERONE]
Growth Rate (Fibroblast; 0 h, replicate number 1): -0.16
Growth Rate (Fibroblast; 0 h, replicate number 2): 0.96
Growth Rate (Fibroblast; 6 h, replicate number 1): 0.94
Growth Rate (Fibroblast; 6 h, replicate number 2): -0.64
Growth Rate (Fibroblast; 18 h, replicate number 1): 0.61
Growth Rate (Fibroblast; 24 h, replicate number 1): 0.01
Growth Rate (U2OS; 0 h, replicate number 1): -0.4

CCN1C(=O)C(c2cccc(C(=O)O)c2)C(=O)N(c2ccccc2)c2cc(C(F)(F)F)ccc21 (stereo unspecified)
Growth Rate (Fibroblast; 0 h, replicate number 1): -1
Growth Rate (Fibroblast; 0 h, replicate number 2): 0.93
Growth Rate (Fibroblast; 6 h, replicate number 1): 0.7
Growth Rate (Fibroblast; 6 h, replicate number 2): -0.94
Growth Rate (Fibroblast; 12 h, replicate number 1): 0.85
Growth Rate (Fibroblast; 12 h, replicate number 2): 0.41
Growth Rate (Fibroblast; 18 h, replicate number 1): 0.92
Growth Rate (Fibroblast; 18 h, replicate number 2): 0.96
Growth Rate (Fibroblast; 24 h, replicate number 1): 0.95
Growth Rate (U2OS; 0 h, replicate number 1): 0.96
Growth Rate (U2OS; 0 h, replicate number 2): 0.93
Growth Rate (U2OS; 6 h, replicate number 1): 0.49
Growth Rate (U2OS; 6 h, replicate number 2): 0.97
Growth Rate (U2OS; 12 h, replicate number 1): 0.8
Growth Rate (U2OS; 12 h, replicate number 2): 0.94
Growth Rate (U2OS; 18 h, replicate number 2): 0.95
Growth Rate (U2OS; 24 h, replicate number 1): 0.88

C[C@H](CCC(=O)O)[C@H]1CC[C@H]2[C@@H]3CC[C@@H]4C[C@H](O)CC[C@]4(C)[C@H]3C[C@H](O)[C@]12C [DEOXYCHOLIC ACID]
Growth Rate (Fibroblast; 0 h, replicate number 1): 0.67
Growth Rate (Fibroblast; 6 h, replicate number 1): 0.32
Growth Rate (Fibroblast; 6 h, replicate number 2): 0.72
Growth Rate (Fibroblast; 12 h, replicate number 2): 0.78
Growth Rate (Fibroblast; 18 h, replicate number 1): 0.97
Growth Rate (Fibroblast; 18 h, replicate number 2): 0.69
Growth Rate (Fibroblast; 24 h, replicate number 2): 0.9
Growth Rate (U2OS; 0 h, replicate number 1): 0.46
Growth Rate (U2OS; 0 h, replicate number 2): 0.84
Growth Rate (U2OS; 6 h, replicate number 1): 0.86
Growth Rate (U2OS; 6 h, replicate number 2): 0.82
Growth Rate (U2OS; 12 h, replicate number 1): 0.76
Growth Rate (U2OS; 12 h, replicate number 2): 0.96
Growth Rate (U2OS; 18 h, replicate number 1): 0.88
Growth Rate (U2OS; 24 h, replicate number 1): 0.86

N#C/C(=C\c1ccc(O)c(O)c1)C(=O)OCCc1cccs1
Growth Rate (Fibroblast; 6 h, replicate number 2): -0.28
Growth Rate (Fibroblast; 12 h, replicate number 2): 0.78
Growth Rate (Fibroblast; 18 h, replicate number 1): 1
Growth Rate (Fibroblast; 18 h, replicate number 2): 0.58
Growth Rate (Fibroblast; 24 h, replicate number 1): 0.86
Growth Rate (Fibroblast; 24 h, replicate number 2): 0.54
Growth Rate (U2OS; 0 h, replicate number 2): 0.41
Growth Rate (U2OS; 12 h, replicate number 2): 0.63
Growth Rate (U2OS; 18 h, replicate number 2): 0.94
Growth Rate (U2OS; 24 h, replicate number 1): 0.8
Growth Rate (U2OS; 24 h, replicate number 2): 0.93
